The values below come from patent EP0474374A1, “Method for treatment of bone wasting diseases using a progestin” (ORTHO PHARMACEUTICAL CORPORATION, priority 1990, dated 1992).

Experiment [1] addresses T1, rat prostate androgen cytosolic receptors (Rattus norvegicus, UniProt P15207).
T1 construct: the supernatant was used as the cytosolic androgen receptor preparation; from tissue; host or cells: ventral prostate glands of castrated male rats (250-300 g); 105,000 g cytosol supernatant
T1 sequence (P15207 1-902): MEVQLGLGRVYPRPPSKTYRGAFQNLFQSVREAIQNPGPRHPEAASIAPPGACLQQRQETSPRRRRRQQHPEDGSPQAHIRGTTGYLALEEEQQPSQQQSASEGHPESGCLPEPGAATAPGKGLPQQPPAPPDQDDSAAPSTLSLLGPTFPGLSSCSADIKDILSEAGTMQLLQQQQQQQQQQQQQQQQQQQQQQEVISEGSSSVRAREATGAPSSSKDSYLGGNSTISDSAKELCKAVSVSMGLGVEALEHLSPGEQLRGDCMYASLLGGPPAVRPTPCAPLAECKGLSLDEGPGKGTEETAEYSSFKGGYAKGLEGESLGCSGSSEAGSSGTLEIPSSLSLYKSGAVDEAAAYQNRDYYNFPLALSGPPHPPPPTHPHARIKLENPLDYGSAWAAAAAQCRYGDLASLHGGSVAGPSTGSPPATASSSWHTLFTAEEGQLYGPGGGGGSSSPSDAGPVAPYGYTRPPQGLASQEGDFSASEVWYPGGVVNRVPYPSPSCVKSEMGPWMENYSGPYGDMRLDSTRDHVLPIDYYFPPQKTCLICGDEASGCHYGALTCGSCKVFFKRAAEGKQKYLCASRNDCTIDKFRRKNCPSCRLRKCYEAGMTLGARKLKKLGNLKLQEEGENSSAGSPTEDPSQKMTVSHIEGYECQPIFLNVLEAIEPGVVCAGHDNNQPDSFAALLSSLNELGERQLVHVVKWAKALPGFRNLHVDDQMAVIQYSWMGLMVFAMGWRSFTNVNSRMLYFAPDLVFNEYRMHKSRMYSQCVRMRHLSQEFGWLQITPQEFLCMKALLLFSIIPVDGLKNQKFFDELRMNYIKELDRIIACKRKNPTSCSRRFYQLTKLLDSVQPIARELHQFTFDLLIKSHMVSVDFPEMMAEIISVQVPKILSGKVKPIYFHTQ
In words: Androgen receptor binding (competitive 3H-DHT displacement). Particulars: 1 nM 3H-DHT, 24 hours at 4°C; mean + 1 S.E. of 4 determinations in duplicate.
Experimental: The relative binding affinity of other steroids, such as progestins, for androgen receptors can be determined by evaluating their ability to displace ³H-DHT from these rat ventral prostate receptors in vitro. Cytosolic androgen receptors were prepared from ventral prostate glands isolated from castrated male rats (250-300 g). Ventral prostate glands were homogenized and centrifuged at 105,000 g for 60 min at 4°C and the supernatant was used as the cytosolic androgen receptor preparation. […] The relative degree of receptor binding of the test progestin was expressed as percent inhibition of total ³H-DHT binding.
The relative binding affinity of other steroids, such as progestins, for androgen receptors is determined by evaluating their ability to displace ³H-DHT from these rat ventral prostate receptors in vitro. Cytosolic androgen receptors were prepared from ventral prostate glands isolated from castrate male rats (250-300 g). Ventral prostate glands were homogenized and centrifuged at 105,000 g for 60 min at 4°C and the supernatant used as the cytosolic androgen receptor preparation. […] The relative degree of receptor binding of the test progestin was expressed as percent inhibition of total ³H-DHT binding.
Relative androgen receptor binding activity was analyzed in competitive binding assays utilizing 3H-DHT binding for rat prostate androgen cytosolic receptors.

The subject of experiment [2] is MC3T3-El osteoblast-line cells. The experiment is described as follows: Osteoblast cell proliferation (3H-thymidine incorporation into DNA). The experiment is classed as cell-based, mouse. (Uptake of a labelled nucleoside into DNA is a usual measure of proliferation.)
Experimental: Only cells undergoing mitosis will synthesize new DNA and thus only these cells will incorporate the radiolabelled DNA specific nucleotide, thymidine. […] The ability of agents to increase osteoblast proliferation and differentiation can be predicted by their action on cultured osteoblast-line cells in vitro. In this test mouse (MC3T3-El), and human (TE-85) osteoblast-line cells were cultured in vitro and the effect of various progestins was tested on osteoblast cell proliferation. Osteoblast cell proliferation was determined by measuring the rate of DNA synthesis, which was quantified by measuring the rate of ³H-thymidine incorporation into DNA.
Following their placement into 96 well culture plates all the osteoblast-line cells, either the MC3T3-El or the TE-85 cell lines, were allowed an additional 24 hours preincubation period in media containing only 0.1% fetal bovine sera. The next day the test compounds were added and screened at concentrations ranging from 10⁻¹⁴ to 10⁻⁶ M depending on the particular study. Twenty hours later a 20 ul aliquot of media containing 0.4 uCi of ³H-thymidine was added to each culture well. The cells were then incubated for an additional 4 hours. The incubation was terminated by aspirating the media and washing with HBSS (Hank's Balanced Salt Solution). The cells were then treated with 100 ul of Trypsin-EDTA (Ethylene Diamine Tetra Acetic Acid) (0.5% trypsin and 5.3 mM EDTA) for 30 minutes at room temperature. The cells were then aspirated onto a glass fiber filter and washed with water. The radioactivity on the filters was quantified by liquid scintillation spectroscopy. The rate of ³H-thymidine incorporation into DNA is then utilized as an index of cell proliferation.
Mouse (MC3T3-El) osteoblast-line cells were cultured in vitro and the effect of various progestins on the ability of the cells to incorporate 3H-thymidine was determined. Osteoblast cell proliferation is determined by measuring the rate of DNA synthesis which was quantified by measuring the rate of ³H-thymidine incorporation into DNA. MC-3T3-El osteoblast-line cells were harvested from large culture flasks where they were allowed to grow to near confluency using Trypsin.

On to `C#C[C@]1(O)C=C[C@H]2[C@@H]3CCC4=CC(=O)CC[C@@H]4[C@H]3CC[C@@]21CC` [GESTODENE], for which the IC50 in experiment [1] was determined as 13 nM. In addition, the “OSTEOBLAST STIMULATION” value in experiment [2] (ability to stimulate 3H-thymidine incorporation in MC3T3-El osteoblast-line cells, stimulation over control) was “NOT ACTIVE”. In experiment [2] (summary statement in words, bone forming cells, cell line not named), the “osteoblast proliferation and differentiation” value was “do not stimulate”.

For orientation: IC50 means the concentration that inhibits the measured activity by half.
